Experimental data reported in patent publication US8088801B2, “Aryloazol-2-yl cyanoethylamino compounds, method of making and method of using thereof” (Merial Limited, priority 2007, dated 2012).

Assays:
Haemonchus contortus [1] = test: Method A: screening against Haemonchus contortus, L1 larvae in microtitre plate; conditions: 96 h, 4 days assessment, read-out: motility inhibition; for inhibition at 0.0025 ppm: test concentration 0.0025 ppm; for inhibition at 0.01 ppm: test concentration 0.01 ppm; for inhibition at 0.04 ppm: test concentration 0.04 ppm; for inhibition at 0.15 ppm: test concentration 0.15 ppm
Text: Method A: Screening Method to Test Activity of Compounds Against Haemonchus contortus.

Haemonchus contortus [2] = test: Method B: Haemonchus contortus in vivo in Mongolian gerbil, oral gavage; parameters: species or system Mongolian gerbil (Meriones unguiculatus); conditions: 72 h, Mongolian gerbils, read-out: reduction in nematode infestation; for inhibition in vivo at 100 mg/kg: necropsy 3 days after treatment
Protocol: Method B: Screening Method to Test Activity of Compounds Against Haemonchus contortus In Vivo in Mongolian Gerbil (Meriones unguiculatus).
Mongolian gerbils, at least five weeks old, were immunosuppressed and artificially infected with ca. 1000 ensheathed Haemonchus contortus third instar larvae. Six days after infection, the Mongolian gerbils were treated by oral gavage with the test compounds, dissolved in a mixture of 2 parts DMSO and 1 part polyethylene glycol (PEG400), at doses of 100 mg/kg and dissolved in pure polyethylene glycol (PEG400) at doses of 10 and 1 mg/kg. Jirds treated only with the placebo (2 parts DMSO and 1 part PEG400 or pure PEG400) served as controls. On day 9 (3 days after treatment) the jirds were euthanized and necropsied for recovery of parasites from the stomach. Efficacy was calculated as the average % reduction in the number of worms in each test group compared with the average number of worms from the control group. […] Compound numbers 1.001, 1.008, 1.012, 1.013 and 1.014 provided at least 95% reduction in nematode infestation in Mongolian gerbils treated by oral gavage with test article at a dose of 100 mg/kg. Compound numbers 1.012, 1.033, 1.064, 2.008, 2.037, 2.038, 2.040, 2.041, 3.001 provided at least 95% reduction in nematode infestation at a dose of 10 mg/kg. Compound numbers 1.094, 2.048, 3.001, 3.007 and 3.009, provided at least 95% reduction in nematode infestation at a dose of 1 mg/kg. Compound numbers 3.005, 3.006, 3.011, 3.012, 3.017 and 3.019, provided at least 95% reduction in nematode infestation at a dose of 0.5 mg/kg.

[3] = tested on: Trichostrongylus colubriformis; test: Method D: screening against Trichostrongylus colubriformis, L1 larvae in microtitre plate; conditions: 96 h, 4 days assessment, read-out: motility inhibition; for inhibition at 0.01 ppm: test concentration 0.01 ppm; for inhibition at 0.04 ppm: test concentration 0.04 ppm; for inhibition at 0.15 ppm: test concentration 0.15 ppm
Protocol: Method D: Screening Method to Test Activity of Compounds Against Trichostrongylus colubriformis.
Twenty L1 Trichostrongylus colubriformis larvae were added to wells of a microtitre plate containing a nutrient medium and the test compound in DMSO. The microtitre plate was then held at 27° C. where the L1 larvae were allowed to develop. An analysis was conducted at 4 days to determine successful development to the L3 stage. Larvae exposed to DMSO and no test compound served as controls. Compounds numbers 1.008, 1.014, 1.042, 1.047, 1.048, 1.073, 2.001, 2.003 and 2.020, gave at least 90% motility inhibition at a test concentration of 0.15 ppm at the 4 days assessment. Compounds numbers 1.001, 1.003, 1.007, 1.011, 1.037, 1.038, 1.043, 1.056, 1.066, 1.070, 1.071, 2.012 and 2.016, gave at least 90% motility inhibition at a test concentration of 0.04 ppm at the 4 days assessment. Compounds numbers 1.012, 1.020, 1.021, 1.033, 1.034, 1.039, 1.064, 1.065, 2.008, 2.009 and 3.005 gave at least 90% motility inhibition at a test concentration of 0.01 ppm at the 4 days assessment. Compounds numbers 1.094, 2.040, 2.048, 2.049, 3.006, 3.009, 3.011 and 3.012 gave at least 90% motility inhibition at a test concentration of 0.0025 ppm at the 4 days assessment.

SMILES	inhibition at 0.01 ppm (Haemonchus contortus [1]) [%]	inhibition at 0.04 ppm [3] [%]	inhibition at 0.04 ppm (Haemonchus contortus [1]) [%]	other results
CC(C#N)(Cn1cc2ccc(Cl)cc2n1)NC(=O)c1ccc(OC(F)(F)F)cc1 (stereo not shown) [Compound 2.037, N-[2-(6-Chloro-2H-indazol-2-yl)-1-cyano-1-methylethyl]-4-trifluoromethoxybenzamide]	–	–	–	inhibition at 0.0025 ppm (Haemonchus contortus [1]): ≥ 90%; inhibition in vivo at 10 mg/kg (Haemonchus contortus [2]): ≥ 95%
COc1c2ncc(Br)c(C)c2nn1CC(C)(C#N)NC(=O)c1ccc(OC(F)(F)F)cc1 (stereo not shown) [Compound 3.007, N-[2-(6-Bromo-3-methoxy-7-methyl-2H-pyrazolo[4,3-b]pyridin-2-yl)-1-cyano-1-methylethyl]-4-trifluoromethoxybenzamide]	≥ 90	–	–	inhibition in vivo at 1 mg/kg (Haemonchus contortus [2]): ≥ 95%
CC(C#N)(Cn1nc2ccc(Br)cc2n1)NC(=O)c1ccc(OC(F)(F)F)cc1 (stereo not shown) [Compound 1.020, N-[2-(5-Bromo-2H-benzotriazol-2-yl)-1-cyano-1-methylethyl]-4-trifluoromethoxybenzamide]	≥ 90	–	–	inhibition at 0.01 ppm [3]: ≥ 90%
COc1cc(Cl)c2nn(CC(C)(C#N)NC(=O)c3ccc(OC(F)(F)F)cc3)nc2c1 (stereo not shown) [Compound 1.070, N-[2-(4-Chloro-6-methoxy-2H-benzotriazol-2-yl)-1-cyano-1-methylethyl]-4-trifluoromethoxybenzamide]	–	≥ 90	≥ 90	–
CC(C#N)(Cn1nc2ccc(Cl)cc2n1)NC(=O)c1ccc(OC(F)(F)F)cc1 (stereo not shown) [Compound 1.001, N-[2-(5-Chloro-2H-benzotriazol-2-yl)-1-cyano-1-methylethyl]-4-trifluoromethoxybenzamide]	≥ 90	≥ 90	–	inhibition in vivo at 100 mg/kg (Haemonchus contortus [2]): ≥ 95%
Cc1cc(Cl)cc2nn(CC(C)(C#N)NC(=O)c3ccc(Oc4ccccc4)cc3)nc12 (stereo not shown) [Compound 1.039, N-[2-(6-Chloro-4-methyl-2H-benzotriazol-2-yl)-1-cyano-1-methylethyl]-4-phenoxybenzamide]	≥ 90	–	–	inhibition at 0.01 ppm [3]: ≥ 90%
CC(C#N)(Cn1nc2cc(Cl)cc(C(F)(F)F)c2n1)NC(=O)c1ccc(OC(F)(F)F)cc1 (stereo not shown) [Compound 1.037, N-[2-(6-Chloro-4-trifluoromethyl-2H-benzotriazol-2-yl)-1-cyano-1-methylethyl]-4-trifluoromethoxybenzamide]	≥ 90	≥ 90	–	–
CC(C#N)(Cn1nc2cc(C(F)(F)F)cc(Cl)c2n1)NC(=O)c1ccc(OC(F)(F)F)cc1 (stereo not shown) [Compound 1.014, N-[2-(4-Chloro-6-trifluoromethyl-2H-benzotriazol-2-yl)-1-cyano-1-methylethyl]-4-trifluoromethoxybenzamide]	–	–	–	inhibition at 0.15 ppm [3]: ≥ 90%; inhibition at 0.15 ppm (Haemonchus contortus [1]): ≥ 90%; inhibition in vivo at 100 mg/kg (Haemonchus contortus [2]): ≥ 95%
COc1c2cc(Cl)cc(Cl)c2nn1CC(C)(C#N)NC(=O)c1ccc(OC(F)(F)F)cc1 (stereo not shown) [Compound 2.020, N-[1-Cyano-2-(5,7-dichloro-3-methoxy-2H-indazol-2-yl)-1-methylethyl]-4-trifluoromethoxybenzamide]	–	–	–	inhibition at 0.15 ppm [3]: ≥ 90%; inhibition at 0.15 ppm (Haemonchus contortus [1]): ≥ 90%
Cc1cc(Cl)cc2nn(CC(C)(C#N)NC(=O)c3ccc(OC(F)(F)F)cc3)nc12 (stereo not shown) [Compound 1.033, N-[−2-(6-Chloro-4-methyl-2H-benzotriazol-2-yl)-1-cyano-1-methylethyl]-4-trifluoromethoxybenzamide]	≥ 90	–	–	inhibition at 0.01 ppm [3]: ≥ 90%; inhibition in vivo at 10 mg/kg (Haemonchus contortus [2]): ≥ 95%
CC(C#N)(Cn1cc2cc(Cl)cc(Cl)c2n1)NC(=O)c1ccc(OC(F)(F)F)cc1 (stereo not shown) [Compound 2.003, N-[1-Cyano-2-(5,7-dichloro-2H-indazol-2-yl)-1-methylethyl]-4-trifluoromethoxybenzamide]	–	–	≥ 90	inhibition at 0.15 ppm [3]: ≥ 90%
CCC(C#N)(Cn1nc2ccc(Cl)cc2n1)NC(=O)c1ccc(OC(F)(F)F)cc1 (stereo not shown) [Compound 1.047, N-{1-[(5-Chloro-2H-benzotriazol-2-yl)methyl]-1-cyanopropyl}-4-trifluoromethoxybenzamide]	–	–	≥ 90	inhibition at 0.15 ppm [3]: ≥ 90%
CC(C#N)(Cn1nc2cc(Cl)cc(C(F)(F)F)c2n1)NC(=O)c1ccc(Oc2ccccc2)cc1 (stereo not shown) [Compound 1.042, N-[2-(6-Chloro-4-trifluoromethyl-2H-benzotriazol-2-yl)-1-cyano-1-methylethyl]-4-phenoxybenzamide]	–	–	≥ 90	inhibition at 0.15 ppm [3]: ≥ 90%
CC(C#N)(Cn1nc2cc(C#N)cc(C(F)(F)F)c2n1)NC(=O)c1ccc(OC(F)(F)F)cc1 (stereo not shown) [Compound 1.056, N-[1-Cyano-2-(6-cyano-4-trifluoromethyl-2H-benzotriazol-2-yl)-1-methylethyl]-4-trifluoromethoxybenzamide]	–	≥ 90	≥ 90	–
CC(C#N)(Cn1cc2cc([N+](=O)[O-])ccc2n1)NC(=O)c1ccc(OC(F)(F)F)cc1 (stereo not shown) [Compound 2.001, N-[1-Cyano-1-methyl-2-(5-nitro-2H-indazol-2-yl)ethyl]-4-trifluoromethoxybenzamide]	–	–	≥ 90	inhibition at 0.15 ppm [3]: ≥ 90%
COc1c2ccccc2nn1CC(C)(C#N)NC(=O)c1ccc(OC(F)(F)F)cc1 (stereo not shown) [Compound 2.016, N-[1-Cyano-2-(3-methoxy-2H-indazol-2-yl)-1-methylethyl]-4-trifluoromethoxybenzamide]	–	≥ 90	≥ 90	–
COc1c2ccc(C(F)(F)F)cc2nn1CC(C)(C#N)NC(=O)c1ccc(OC(F)(F)F)cc1 (stereo not shown) [Compound 2.025, N-[1-Cyano-2-(3-methoxy-6-trifluoromethyl-2H-indazol-2-yl)-1-methylethyl]-4-trifluoromethoxybenzamide]	–	–	–	inhibition at 0.0025 ppm (Haemonchus contortus [1]): ≥ 90%
COc1c2cc(Cl)ccc2nn1CC(C)(C#N)NC(=O)c1ccc(OC(F)(F)F)cc1 (stereo not shown) [Compound 2.012, N-[2-(5-Chloro-3-methoxy-2H-indazol-2-yl)-1-cyano-1-methylethyl]-4-trifluoromethoxybenzamide]	≥ 90	≥ 90	–	–
CC(C#N)(Cn1nc2cc(Cl)cc(Br)c2n1)NC(=O)c1ccc(OC(F)(F)F)cc1 (stereo not shown) [Compound 1.060, N-[2-(4-Bromo-6-chloro-2H-benzotriazol-2-yl)-1-cyano-1-methylethyl]-4-trifluoromethoxybenzamide]	–	–	≥ 90	–
COc1c2ncc(Cl)cc2nn1CC(C)(C#N)NC(=O)c1ccc(OC(F)(F)F)cc1 (stereo not shown) [Compound 3.001, N-[2-(6-Chloro-3-methoxy-2H-pyrazolo[4,3-b]pyridin-2-yl)-1-cyano-1-methylethyl]-4-trifluoromethoxybenzamide]	–	–	–	inhibition at 0.0025 ppm (Haemonchus contortus [1]): ≥ 90%; inhibition in vivo at 1 mg/kg (Haemonchus contortus [2]): ≥ 95%; inhibition in vivo at 10 mg/kg (Haemonchus contortus [2]): ≥ 95%
CC(C#N)(Cn1nc2cccc(Cl)c2n1)NC(=O)c1ccc(OC(F)(F)F)cc1 (stereo not shown) [Compound 1.043, N-[2-(4-Chloro-2H-benzotriazol-2-yl)-1-cyano-1-methylethyl]-4-trifluoromethoxybenzamide]	–	≥ 90	≥ 90	–
CC(C#N)(Cn1nc2cc(Cl)cc(C#N)c2n1)NC(=O)c1ccc(OC(F)(F)F)cc1 (stereo not shown) [Compound 1.067, N-[2-(6-Chloro-4-cyano-2H-benzotriazol-2-yl)-1-cyano-1-methylethyl]-4-trifluoromethoxybenzamide]	–	–	≥ 90	–
CC(C#N)(Cn1nc2cc(C(F)(F)F)cc(C(F)(F)F)c2n1)NC(=O)c1ccc(OC(F)(F)F)cc1 (stereo not shown) [Compound 1.018, N-[2-(4,6-Bis(trifluoromethyl)-2H-benzotriazol-2-yl)-1-cyano-1-methylethyl]-4-trifluoromethoxybenzamide]	–	–	–	inhibition at 0.15 ppm (Haemonchus contortus [1]): ≥ 90%
